Data from publication doi:10.1101/2024.04.19.590329, “Quantifying and controlling the proteolytic degradation of cell adhesion peptides” (bioRxiv, 2024).
Non-standard residues stand in square brackets, D forms with d. Residues, ends and D or L forms follow the SMILES beside them. βAla = NCCC(=O)O

Key:
[1] = tested on: cells in gels, all cell types; test: Viability of cells in gels (alamarBlue); assay type: cell-based, human; conditions: cells in PEG gels, days 0, 3 and 7, across all cell types
Protocol: Cells were cultured in gels as described. A working solution was made by diluting the alamarBlue dye (Y00–100, Thermo Scientific) (1:10) with the same media cells were cultured in. The media the cells were in was replaced with one ml of working solution. One ml of working solution was also placed into 3 blank wells. The cells were then placed in the incubator 36°C, 5% CO2 for 3 hours. After 3 hours, 100 μL of the solution was sampled and placed into a 96 well plate, and fluorescence intensity was measured using a Tecan plate reader using 560Ex/590Em nm filter settings, reading from the bottom of the plate. Immediately after measurement, the alamar blue working solution was washed three times with appropriate media for each cell type being measured and placed back in the incubator. The same cells were used for each measurement during days 0, 3, and 7.

[2] = Degradation of individual glycine-terminated peptide at 19.5 to 5,000 μM (cell type not stated); assay type: in vitro ADME; conditions: individual peptide with glycine at the terminus, initial concentration 5,000 μM, LCMS, cell type not stated (Fig. 4A)
Protocol: The column temperature was a constant 29 °C. The Mass Spectrometer was operated in positive ion mode.
Data Analysis was performed on Xcalibur Software (Thermo Scientific). […] Calculated data was visualized using RStudio.

[3] = tested on: hUVECs
Protocol: Passage 2 of human umbilical vein endothelial cells (hUVECs) (Life Technology) were seeded into 24 well plates at a seeding density of 150,000 cells per well in 1ml of expansion media (Lifeline Cell Technology, LM-0002) containing ascorbic acid, hydrocortisone, FBS, L-Glutamine, rh-EGF, heparin, and EnGS-US (All supplements LifeFactors, LS-1122). After 24 hour the media was changed. Peptide libraries, each containing 19 peptides and the non-proteolytically degradable βFβAβAβAβAβA-NH2 internal standard, were added to the cell media for a final concentration of 37 μM per peptide. Each library was tested in triplicate per per cell type per study. 40 μl samples were collected from the media at hours 0, 1, 4, 8, 24, and 48. In-between timepoints samples were frozen −80°C. […]
Data Analysis was performed on Xcalibur Software (Thermo Scientific). Peptides were identified automatically using the Thermo Xcalibur Processing Setup window where the mass (m/z) ±0.5 AMU and expected retention times for each quantified peptide were inputted. This was later used to isolate individual peptide species from the total ion count (TIC) trace using the Thermo Xcalibur Quan Setup window, where the area under the curve was calculated and visually inspected for accuracy. […] Relative amounts of a peptide of peptide were then calculated by normalized all values to their corresponding time zero area ratio.

## cyclic GRGDSK(N3) (head to tail) [cRGD, Cyclic RGD peptide, positive control, has no terminus, tethered to PEG-DBCO hydrogel by azide]
[1]
  viability within gels, in words: greatest viability

## CC(C)[C@H](NC(=O)[C@H](Cc1ccccc1)NC(=O)[C@H](CCC(=O)O)NC(=O)CNC(=O)[C@H](CCCNC(=N)N)NC(=O)CN)C(=O)NCCC(N)=O [amine-terminated RGEFV peptides] (H-GRGEFV[βAla]-NH2)
[2]
  peptide remaining after 48 hours: 5%

## LIAANK
[3]
  degradation in words: rapidly degraded
